Measured values from US9108930B2, “N1- and N2-carbamoyl-1,2,3-triazole serine hydrolase inhibitors and methods” (The Scripps Research Institute, priority 2011, dated 2015).

Columns and labels:
APEH = target: T1, APEH (Mus musculus, UniProt Q8R146); test: In situ inhibition in cultured mouse T-cells, gel-based competitive ABPP; format: cell-based; settings: 4 h at 37° C.; read-out: potency of APEH inactivation in cultured T-cells
T1 sequence (Q8R146 1-732): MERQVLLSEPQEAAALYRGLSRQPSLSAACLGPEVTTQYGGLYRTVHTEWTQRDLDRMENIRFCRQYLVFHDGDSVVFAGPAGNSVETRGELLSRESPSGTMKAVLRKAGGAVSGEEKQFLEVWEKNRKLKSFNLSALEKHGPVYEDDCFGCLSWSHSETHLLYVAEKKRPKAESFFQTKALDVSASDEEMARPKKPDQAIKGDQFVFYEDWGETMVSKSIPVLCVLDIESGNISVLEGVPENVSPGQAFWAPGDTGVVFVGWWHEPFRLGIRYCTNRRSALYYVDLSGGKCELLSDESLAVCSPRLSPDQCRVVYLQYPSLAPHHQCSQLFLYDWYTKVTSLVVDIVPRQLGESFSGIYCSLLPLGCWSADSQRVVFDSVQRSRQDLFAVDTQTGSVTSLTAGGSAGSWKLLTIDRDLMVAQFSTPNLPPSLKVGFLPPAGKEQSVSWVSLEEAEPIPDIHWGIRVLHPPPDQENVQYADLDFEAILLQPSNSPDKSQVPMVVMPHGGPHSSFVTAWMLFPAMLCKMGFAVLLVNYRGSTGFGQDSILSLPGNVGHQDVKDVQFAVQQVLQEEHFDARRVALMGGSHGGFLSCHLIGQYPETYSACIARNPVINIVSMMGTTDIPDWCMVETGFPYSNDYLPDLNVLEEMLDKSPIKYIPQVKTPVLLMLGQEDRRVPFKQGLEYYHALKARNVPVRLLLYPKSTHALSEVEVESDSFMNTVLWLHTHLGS

[1] = target: T2, acetylcholinesterase (ACHE) (Mus musculus, UniProt P21836); test: Competitive ABPP of ACHE recombinantly expressed in COS-7 cells; format: biochemical; settings: 30 minutes at 37° C.
T2 construct: full-length cDNAs encoding mouse serine hydrolases were either transfected directly; host or cells: COS-7 cells
T2 sequence (P21836 32-614): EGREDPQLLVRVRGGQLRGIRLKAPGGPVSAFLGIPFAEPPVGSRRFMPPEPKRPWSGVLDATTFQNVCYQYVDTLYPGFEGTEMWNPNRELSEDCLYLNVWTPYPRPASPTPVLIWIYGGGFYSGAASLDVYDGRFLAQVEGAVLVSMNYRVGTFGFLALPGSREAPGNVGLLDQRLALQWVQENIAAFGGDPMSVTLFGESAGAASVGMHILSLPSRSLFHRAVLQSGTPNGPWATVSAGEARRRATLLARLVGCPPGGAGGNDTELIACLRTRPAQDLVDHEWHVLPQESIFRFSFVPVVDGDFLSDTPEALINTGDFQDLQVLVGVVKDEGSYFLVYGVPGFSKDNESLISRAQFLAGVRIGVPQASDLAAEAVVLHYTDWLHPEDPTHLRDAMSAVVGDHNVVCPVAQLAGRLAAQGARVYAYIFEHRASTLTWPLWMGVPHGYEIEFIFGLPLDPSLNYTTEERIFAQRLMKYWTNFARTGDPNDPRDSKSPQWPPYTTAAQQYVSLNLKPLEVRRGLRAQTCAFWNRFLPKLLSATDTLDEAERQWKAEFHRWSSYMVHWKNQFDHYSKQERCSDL
Description: ACHE was recombinantly expressed in COS-7 cells. Whole cell proteome was mixed 1:1 with soluble mouse brain proteome and treated with DMSO or AA74-1 in vitro at indicated concentrations for 30 minutes at 37° C., after which the samples were analyzed by competitive ABPP. Note that ACHE migrates as multiple bands by SDS-PAGE due to heterogeneous glycosylation. ACHE inhibition in vivo was not observed, as reflected by the equal signals for this enzyme in competitive ABPP results shown in FIG. 5b.
Briefly, full-length cDNAs encoding mouse serine hydrolases were either transfected directly (if available in a eukaryotic expression vector) or subcloned into pcDNA3 (Invitrogen). COS-7 or HEK-293 cells were grown to about 70% confluence in 10 cm dishes in complete medium (DMEM with L-glutamine, nonessential amino acids, sodium pyruvate, and FCS) at 37° C. and 5% CO2. The cells were transiently transfected by using the appropriate cDNA or empty vector control (“mock”) and the FUGENE® 6 (Roche Applied Science) transfection reagents following the manufacturers' protocols. After 48 hrs, the cells were washed twice with phosphate-buffered saline (PBS), and collected by scraping.

[2] = target: T3, APEH recombinantly expressed in HEK-293 cells (Mus musculus, UniProt Q8R146); test: APEH exopeptidase assay with synthetic N-acetylated hexapeptides (LC-MS); format: biochemical; settings: 3 nM, 30 min pre-treatment
T3 construct: full-length cDNAs encoding mouse serine hydrolases were either transfected directly; host or cells: HEK-293
Description: Enzyme assays were performed with LC-MS by monitoring the release of the N-terminal N-acetyl amino acid. APEH was transiently overexpressed in HEK-293 cells and whole cell lysates were treated with DMSO or 3 nM AA74-1 for 30 minutes and adjusted to a final protein concentration of about 0.3 mg/mL with PBS buffer. For each reaction, about 200 μM of hexapeptide were incubated with lysates for 10 h at 37° C. before quenching with 0.8 mL MeOH. Samples were centrifuged for 10 minutes at 10,000×g at 4° C. and the supernatant was dried down under vacuum. For LC-MS analysis samples were injected into an Agilent 1100 LC-MSD SL instrument applying the following gradient: Buffer A (MeCN) to Buffer B (95:5 H2O/MeCN+50 mM NH4OAc+0.2% NH4OH). Data represent the average±s.d. for three experiments.
Enzyme assays were performed with LC-MS by monitoring the formation of free N-acetyl amino acid. Mouse APEH was recombinantly expressed in HEK-293 cells and whole cell lysates of overexpressed APEH (or mock) were pre-treated with DMSO or 3 nM AA74-1 for 30 minutes and adjusted to a final protein concentration of 0.3 mg/mL with PBS buffer. For each reaction 200 μM of hexapeptide substrate were incubated with lysates in 200 μL total reaction volume. Reactions were incubated for 10 h at 37° C. before quenching with 0.8 mL MeOH. […]

human APEH = target: T4, human APEH (Homo sapiens, UniProt P13798); test: Competitive ABPP, soluble fractions of human cancer cells; format: biochemical
T4 construct: endogenous in cells; host or cells: SKOV3, C8161, MDA-MB-231 (soluble fractions)
T4 sequence (P13798 whole entry): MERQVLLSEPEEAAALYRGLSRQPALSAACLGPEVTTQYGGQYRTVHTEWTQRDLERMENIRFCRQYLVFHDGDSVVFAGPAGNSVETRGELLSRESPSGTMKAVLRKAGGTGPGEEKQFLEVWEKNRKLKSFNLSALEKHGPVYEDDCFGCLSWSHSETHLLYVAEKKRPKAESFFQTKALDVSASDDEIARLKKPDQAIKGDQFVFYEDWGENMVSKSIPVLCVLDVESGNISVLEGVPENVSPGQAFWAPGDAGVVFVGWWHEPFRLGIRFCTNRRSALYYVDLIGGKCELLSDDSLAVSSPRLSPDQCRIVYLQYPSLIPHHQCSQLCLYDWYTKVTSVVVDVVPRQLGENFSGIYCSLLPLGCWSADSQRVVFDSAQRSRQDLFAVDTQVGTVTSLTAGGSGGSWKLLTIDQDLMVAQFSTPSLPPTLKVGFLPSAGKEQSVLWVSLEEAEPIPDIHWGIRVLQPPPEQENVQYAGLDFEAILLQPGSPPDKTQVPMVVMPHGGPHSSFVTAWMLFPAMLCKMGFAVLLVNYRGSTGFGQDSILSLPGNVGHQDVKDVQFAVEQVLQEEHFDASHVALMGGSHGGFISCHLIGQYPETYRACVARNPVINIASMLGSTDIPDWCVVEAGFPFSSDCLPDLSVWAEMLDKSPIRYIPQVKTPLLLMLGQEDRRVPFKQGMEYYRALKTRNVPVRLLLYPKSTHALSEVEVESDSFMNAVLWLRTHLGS
Description: The soluble fractions of human ovarian (SKOV3), melanoma (C8161), and breast (MDA-MB-231) cancer cells, as well as rat neuroblastoma (B103) cells were treated with 30 nM AA74-1 or DMSO for 30 minutes at 37° C., after which the samples were analyzed by competitive ABPP. Inhibited APEH is highlighted with boxes. Note that other SHs detected in human and mouse proteomes were not inhibited by AA74-1.

ABHD6 = target: T5, ABHD6 (Mus musculus, UniProt Q8R2Y0); test: ABPP-MudPIT of peritoneal macrophages from treated mice; set-up: from tissue; host or cells: thioglycolate-elicited peritoneal macrophages of mice; settings: in vivo
T5 sequence (Q8R2Y0 1-336): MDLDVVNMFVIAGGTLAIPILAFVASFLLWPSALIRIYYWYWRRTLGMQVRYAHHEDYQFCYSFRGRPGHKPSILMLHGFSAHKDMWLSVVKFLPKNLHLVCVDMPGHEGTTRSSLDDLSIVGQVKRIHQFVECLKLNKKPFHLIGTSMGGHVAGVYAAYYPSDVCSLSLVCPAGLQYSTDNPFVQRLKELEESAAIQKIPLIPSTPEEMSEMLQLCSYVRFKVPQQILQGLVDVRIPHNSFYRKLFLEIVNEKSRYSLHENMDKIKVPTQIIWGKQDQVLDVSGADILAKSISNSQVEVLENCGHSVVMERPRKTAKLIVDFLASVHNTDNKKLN

SMILES | IC50 (APEH) [nM] | ACHE inhibition in transfected cell proteome [1] | cleavage of N-terminally acetylated residue by APEH-transfected cells [2] | IC50 (human APEH) [nM] | ABHD6 inhibition by spectral counting (ABHD6)
CC(C)CC(O)(CC(C)C)c1cnn(C(=O)N2CCCC2)n1 [AA74-1] | 0.14 to 0.17 | not inhibited | blocked | 11 | –
COc1ccc(-c2ccc(-c3cn(C(=O)N4CCCCC4c4ccccc4)nn3)cc2)cc1 (centres unmarked) [KT195] | – | – | – | – | complete inhibition of ABHD6
